Experimental data: patent US4442084A, “Analgesic and myotonolytic preparations” (Sandoz Ltd., priority 1979, dated 1984)
Like-named read-outs stand apart in the source and are kept apart here.

Legend:
[1] = Basic analgesic test: adjuvans arthritis pain test on the rat, oral administration; format: in vivo, rat (male OFA); conditions: for ED50: Rattus norvegicus, po, individual component
Experimental: J. of Pharmacology 31, 207-215 (1975)], e.g. as follows: […] This induces a secondary arthritis of the right hind-paw within the course of the next two or more days. The test for analgesic effectiveness is carried out 16 to 18 days later. A control measurement is carried out 30 minutes prior to administration of the test-substance, by flexing the ankle-joint of the right hind paw three times and recording the number of vocalisations (pain-reaction). […] The confidence limits are determined according to the method of […] Wilcoxon. All tests are carried out blind, employing 5 to 15 animals per test substance.

[2] = Test for synergism: analgesia 3 hours after oral co-administration, adjuvans arthritis pain test on the rat; format: in vivo, rat (male OFA)
Experimental: In order to establish the presence or absence of synergism the basic analgesic test described above is employed, with analgesia measured three hours after administration of the test substance. Varying proportions of the two test-substance components are used, in fixed dose relationships, based upon the ED50 values previously established for the individual components. The degree of activity is then presented graphically. The test components are administered orally in tragacanth suspension and 5 to 15 animals employed per test run. The two test-components are administered in the following dose relationship: […]
Thus three basic curves may be obtained as shown diagramatically in FIG. 1 in which a curve x represents potentiation (i.e. super-additive synergism), a curve y represents additive synergism and a curve z represents antagonism.

[3] = 1 hour after administration, read-out: ED50 at 1 hour after administration
[4] = 3 hours after administration, read-out: ED50 at 3 hours after administration
[5] = 5 hours after administration, read-out: ED50 at 5 hours after administration

Row | SMILES | ED50 [1, 3] [mg/kg] | ED50 [1, 4] [mg/kg] | ED50 [1, 5] [mg/kg] | activity at 6.5 mg/kg ([2]; Rattus norvegicus, po, A 6.5 mg/kg, B 0 p.o. (relative dosage 1 : 0)) [%] | percentage printed in parentheses beside the ED50 at 5 hours (not explained) ([1]; p.o., 5 hours after administration) [%] | % activity ([2]; A 0, B 3.6 mg/kg p.o. (relative dosage 0 : 1)) [%]
1 | Cc1ccc2c(-c3ccc(F)cc3)nc(=O)n(C(C)C)c2c1 [Component A, 1-Isopropyl-4-(4-fluorophenyl)-7-methyl-2(1H)-quinazolinone] | ~18 | 6.5 | 7 | 50 | – | –
2 | Clc1ccc2nsnc2c1NC1=NCCN1 [Component B, 5-chloro-4-(2-imidazolin-2-ylamino)-2,1,3-benzothiadiazole] | ~1.8 | 3.6 | ~10 | – | -60 | 50
